This assay concerns P388 leukemia ip, CD2F1 mice, survival T/C. The assay is described as follows: NCI In Vivo Anticancer Drug Screen. Data for tumor model P388 Leukemia (intraperitoneal) in CD2F1 (CDF1) mice. The following applies: endpoint: median survival time, higher = longer survival. A digest of the protocol: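 Mice carrying the transplanted tumor received test compound or vehicle. Survival was recorded in each group, and the value is the treated-group measurement divided by that of the vehicle-treated control group.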

The mark [1] stands for this setting: dose: 50.0 mg/kg/injection, schedule: Q01DX009 (ip), vehicle: saline with Tween-80.
[2] abbreviates: dose: 100.0 mg/kg/injection, schedule: Q01DX009 (ip), vehicle: saline with Tween-80.
Setting [3] is: dose: 200.0 mg/kg/injection, schedule: Q01DX009 (ip), vehicle: saline with Tween-80.
The mark [4] stands for this setting: dose: 12.5 mg/kg/injection, schedule: Q01DX009 (ip), vehicle: Klucel (hydroxypropylcellulose) (HPC).
The mark [5] stands for this setting: dose: 25.0 mg/kg/injection, schedule: Q01DX009 (ip), vehicle: Klucel (hydroxypropylcellulose) (HPC).
The mark [6] stands for this setting: dose: 50.0 mg/kg/injection, schedule: Q01DX009 (ip), vehicle: Klucel (hydroxypropylcellulose) (HPC).
[7] abbreviates: dose: 50.0 mg/kg/injection, schedule: Q01DX005 (ip), vehicle: Klucel (hydroxypropylcellulose) (HPC).
Where [8] appears, read: dose: 100.0 mg/kg/injection, schedule: Q01DX005 (ip), vehicle: Klucel (hydroxypropylcellulose) (HPC).
[9] abbreviates: dose: 200.0 mg/kg/injection, schedule: Q01DX005 (ip), vehicle: Klucel (hydroxypropylcellulose) (HPC).
[10] abbreviates: dose: 200.0 mg/kg/injection, schedule: Q04DX002 (ip), vehicle: saline with Tween-80.
The mark [11] stands for this setting: dose: 50.0 mg/kg/injection, schedule: Q01DX005 (ip), vehicle: saline.
Where [12] appears, read: dose: 100.0 mg/kg/injection, schedule: Q01DX005 (ip), vehicle: saline.
The mark [13] stands for this setting: dose: 200.0 mg/kg/injection, schedule: Q01DX005 (ip), vehicle: saline.

The structures appear in SMILES notation. Values joined by “and” are separate entries in the source; they are usually repeats but may differ in a detail not shown here. Equal values may be shown once. Inconclusive results and toxic doses are left out.

Regarding `CC(=O)C(Cc1ccccc1)NC(=O)C(F)(F)F` (configuration not stated), the T/C was 93 % of control under setting [1], 90 % of control under setting [2] and 98 % of control under setting [3].
As for `Nc1ccc2[nH]c3cnccc3c2c1`, the T/C (dose: 12.5 mg/kg/injection, schedule: Q01DX009 (ip), vehicle: other) was 103 % of control; the T/C (dose: 25.0 mg/kg/injection, schedule: Q01DX009 (ip), vehicle: other) was 108 % of control; the T/C (dose: 50.0 mg/kg/injection, schedule: Q01DX009 (ip), vehicle: other) was 103 % of control; the T/C (dose: 100.0 mg/kg/injection, schedule: Q01DX009 (ip), vehicle: other) was 103 % of control.
Turning to `CCC/C=[CH]/[Hg][Cl]`, the T/C is 110 % of control (dose: 6.25 mg/kg/injection, schedule: Q04DX003 (ip), vehicle: other) and 110 % of control (dose: 12.5 mg/kg/injection, schedule: Q04DX003 (ip), vehicle: other).
Take `CCn1c(=O)c2[nH]c(Cl)nc2n(CC(C)Cl)c1=O` (configuration not stated): the T/C is 94 % of control under setting [4]; 101 % of control under setting [5]; 100 % of control and 103 % of control under setting [6]; 104 % of control (dose: 100.0 mg/kg/injection, schedule: Q01DX009 (ip), vehicle: Klucel (hydroxypropylcellulose) (HPC)).
Regarding `COc1ccc(C(CCO)c2cc3c(cc2OC)OCO3)cc1` (configuration not stated), the T/C is 101 % of control (dose: 50.0 mg/kg/injection, schedule: Q01DX005 (ip), vehicle: distilled water + Tween-80); 101 % of control (dose: 100.0 mg/kg/injection, schedule: Q01DX005 (ip), vehicle: distilled water + Tween-80); 98 % of control (dose: 200.0 mg/kg/injection, schedule: Q01DX005 (ip), vehicle: distilled water + Tween-80).
On to `COC(=O)C1(CC(=O)c2ccc(N3CCN(c4ccc(C(=O)CC5(C(=O)OC)NC(=S)NC(=O)C5C#N)cc4)CC3)cc2)NC(=S)NC(=O)C1C#N` (configuration not stated), for which the T/C (dose: 7.5 mg/kg/injection, schedule: Q01DX005 (ip), vehicle: Klucel (hydroxypropylcellulose) (HPC)) is 96 % of control; the T/C (dose: 15.0 mg/kg/injection, schedule: Q01DX005 (ip), vehicle: Klucel (hydroxypropylcellulose) (HPC)) is 99 % of control; the T/C (dose: 30.0 mg/kg/injection, schedule: Q01DX005 (ip), vehicle: Klucel (hydroxypropylcellulose) (HPC)) was 98 % of control and 92 % of control.
Take `CC(=O)Oc1ccccc1C(=O)OC1CCN(C(C)C)C1` (configuration not stated): the T/C was 100 % of control (dose: 100.0 mg/kg/injection, schedule: Q04DX003 (ip), vehicle: saline) and 95 % of control (dose: 200.0 mg/kg/injection, schedule: Q04DX003 (ip), vehicle: saline).
Take `CN=C1OC2(c3ccccc3)C3=C(OC(=NC)N2C)C(=O)OC3(c2ccccc2)N1C` (configuration not stated): the T/C is 98 % of control (dose: 60.0 mg/kg/injection, schedule: Q01DX005 (ip), vehicle: Klucel (hydroxypropylcellulose) (HPC)); 95 % of control (dose: 120.0 mg/kg/injection, schedule: Q01DX005 (ip), vehicle: Klucel (hydroxypropylcellulose) (HPC)); 91 % of control (dose: 240.0 mg/kg/injection, schedule: Q01DX005 (ip), vehicle: Klucel (hydroxypropylcellulose) (HPC)).
On to `CC1=CC(=O)C(=Ic2ccccc2)C(=O)O1`, for which the T/C runs as follows: under setting [7], 100 % of control; under setting [8], 98 % of control; under setting [9], 104 % of control.
For the compound `O=[N+]([O-])c1ccc(N/N=C\C2OC3O[C@@H](C(Cl)(Cl)Cl)OC3C2O)c([N+](=O)[O-])c1` (some centres not stated), under setting [10], the T/C was 87 % of control.
As to `COC(=O)CCC1=C(C)c2cc3cc(C)c(cc4cc(C)c(cc5nc(cc1n2)C(CCC(=O)OC)=C5C)[nH]4)[nH]3`, the T/C is 96 % of control (dose: 0.75 mg/kg/injection, schedule: Q01DX005 (ip), vehicle: saline with Tween-80); 98 % of control (dose: 1.5 mg/kg/injection, schedule: Q01DX005 (ip), vehicle: saline with Tween-80); 91 % of control (dose: 3.0 mg/kg/injection, schedule: Q01DX005 (ip), vehicle: saline with Tween-80); 90 % of control (dose: 3.12 mg/kg/injection, schedule: Q01DX005 (ip), vehicle: saline with Tween-80).
`COc1ccc2c(c1)CCC1C=NOC21` (configuration not stated): the T/C reads like this: under setting [7], 97 % of control; under setting [8], 103 % of control; under setting [9], 97 % of control.
As for `CC(NCCNC(C)c1cccnc1)c1cccnc1` (configuration not stated), the T/C is 102 % of control under setting [11], 110 % of control under setting [12] and 94 % of control under setting [13].
For `O=C1CC2(C(=O)N1)c1ccccc1-c1ccccc12`, the T/C is 96 % of control under setting [1], 103 % of control under setting [2] and 119 % of control under setting [3].
In the case of `COC(=O)c1cc(-c2ccc(C)cc2)[nH]c(=O)c1C#N`, the T/C is 103 % of control (dose: 60.0 mg/kg/injection, schedule: Q01DX005 (ip), vehicle: saline); 100 % of control (dose: 120.0 mg/kg/injection, schedule: Q01DX005 (ip), vehicle: saline); 108 % of control (dose: 240.0 mg/kg/injection, schedule: Q01DX005 (ip), vehicle: saline).
Regarding `COC(=O)C1=COC(C)C2CN3CCc4c([nH]c5cc(OC)c(OC)cc45)C3CC12` (configuration not stated), the T/C (dose: 50.0 mg/kg/injection, schedule: Q01DX005 (ip), vehicle: saline with Tween-80) was 101 % of control; the T/C (dose: 100.0 mg/kg/injection, schedule: Q01DX005 (ip), vehicle: saline with Tween-80) was 102 % of control; the T/C (dose: 200.0 mg/kg/injection, schedule: Q01DX005 (ip), vehicle: saline with Tween-80) is 115 % of control.
In the case of `N#CCN(CNC(=O)c1ccccc1)N=O`, the T/C reads like this: (dose: 100.0 mg/kg/injection, schedule: Q04DX002 (ip), vehicle: saline with Tween-80) 101 % of control; under setting [10], 105 % of control.
As for `CC1C(=O)OC(C(O)C(C)(O)C2C(O)CC3C4CC5OC56C(O)C=CC(=O)C6(C)C4CCC32C)C1C` (configuration not stated), the T/C runs as follows: (dose: 1.25 mg/kg/injection, schedule: Q01DX009 (ip), vehicle: Klucel (hydroxypropylcellulose) (HPC)) 108 % of control; (dose: 2.5 mg/kg/injection, schedule: Q01DX009 (ip), vehicle: Klucel (hydroxypropylcellulose) (HPC)) 103 % of control; (dose: 5.0 mg/kg/injection, schedule: Q01DX009 (ip), vehicle: Klucel (hydroxypropylcellulose) (HPC)) 105 % of control; (dose: 10.0 mg/kg/injection, schedule: Q01DX009 (ip), vehicle: Klucel (hydroxypropylcellulose) (HPC)) 108 % of control.
For the compound `CC1CC2OC2/C=C\C=C\C(=O)Cc2c(Cl)c(O)cc(O)c2C(=O)O1` (configuration not stated), the T/C reads like this: (dose: 6.25 mg/kg/injection, schedule: Q01DX009 (ip), vehicle: Klucel (hydroxypropylcellulose) (HPC)) 107 % of control; under setting [4], 108 % of control; under setting [5], 110 % of control; under setting [6], 109 % of control.
Take `CN(C)NP(=O)(NN(C)C)Oc1ccccc1`: the T/C runs as follows: under setting [11], 97 % of control; under setting [12], 99 % of control; under setting [13], 103 % of control.
Consider `COc1cc(O)ccc1C(=S)SC`, for which the T/C (dose: 100.0 mg/kg/injection, schedule: Q04DX003 (ip), vehicle: saline with Tween-80) is 106 % of control and the T/C (dose: 200.0 mg/kg/injection, schedule: Q04DX003 (ip), vehicle: saline with Tween-80) is 99 % of control.

These data come from PubChem BioAssay AID330 (DTP/NCI, 2004).
